US20160137639A1, “TRIAZOLE-ISOXAZOLE COMPOUND AND MEDICAL USE THEREOF” (JAPAN TOBACCO INC., priority 2012, published 2016)
Read-outs that look alike come from different tables or passages of the source.

Columns and labels:
human RORγ = biological target: T1, human RORγ (Homo sapiens, UniProt P51449); assay: Luciferase reporter gene assay of inhibitory effect against RORγ transcriptional activity (GAL4-hRORγ plasmid in CHO cells); format: cell-based
T1 construct: human, NM_005060.3 and from Ser253 to Lys518; expressed in transfected cells; host or cells: CHO cells (transient co-transfection with pG5-Luc reporter)
T1 sequence (P51449 253-518): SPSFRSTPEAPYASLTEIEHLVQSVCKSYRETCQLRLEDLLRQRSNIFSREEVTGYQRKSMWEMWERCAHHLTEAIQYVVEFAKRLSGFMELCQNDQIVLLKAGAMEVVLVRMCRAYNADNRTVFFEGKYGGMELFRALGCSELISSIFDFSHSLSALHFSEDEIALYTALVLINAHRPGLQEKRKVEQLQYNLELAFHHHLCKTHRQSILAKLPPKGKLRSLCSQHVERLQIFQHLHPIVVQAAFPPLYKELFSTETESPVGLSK
Method: (§1) In vitro assay of inhibitory effect against RORγ transcriptional activity
(§2) Inhibitory effect of test article on transcriptional activity of RORγ was measured by means of the following luciferase reporter gene assay.
(§3) A cDNA encoding human and mouse RORγ ligand binding domain (LBD) were obtained based on the reported sequences (Genebank accession number and sequence: human, NM_005060.3 and from Ser253 to Lys518; mouse, NM_011281.2 and from Ile251 to Lys516).
(§4) The cDNA of human RORγ or mouse RORγ was inserted into pFA-CMV vector (Strategene), which expresses GAL4-DNA binding domain fusion protein.
(§5) The resulting plasmids are hereinafter referred to as GAL4-hRORγ plasmid and GAL4-mRORγ plasmid, respectively.
(§6) Human or mouse GAL4-RORγ plasmid was transiently co-transfected into Chinese hamster ovary cells (CHO cells) with […] plasmid, a reporter plasmid expressing firefly luciferase depending on GAL4.
(§7) TransIT CHO transfection reagent (Mirus) was used to co-transfect human or mouse GAL4-RORγ plasmid into CHO cells with pG5-Luc plasmid.
(§8) One day before the assay, CHO cells were suspended in HAM F-12 Nutrient medium containing 10 v/v % fetal bovine serum and seeded at 6×10^6 cells per 175 cm^2 cell culture flask.
(§9) Fifty four micro litters of Transit-CHO reagent was added into a 15 ml tube containing 1.16 ml of HAM F-12 Nutrient medium without fetal bovine serum and incubated at room temperature for 10 min.
A total 36 uL plasmid solution containing the GAL4-hRORγ plasmid (400 ng), pG5-Luc plasmid (9000 ng) and pcDNA3 plasmid (8600 ng) were added into the tube and mixed gently.
(§10) The mixture was incubated at room temperature for 10 min.
(§11) Nine micro litters of CHO Mojo Reagent was then added into each tube and mixed gently. The mixture was incubated at room temperature for 10 min.
(§12) The resultant transfection reagent was applied to the cell culture.
(§13) After incubation at 37° C., 5% CO2 for 4 hr, the transfected CHO cells were harvested by a trypsin treatment.
(§14) The collected cells were resuspended in HAM F-12 Nutrient medium supplemented with 10 v/v % fetal bovine serum and plated into a 384-well-white plate at 8,000 cells/50 uL/well.
(§15) The plate was incubated at room temperature for 1 hour and then further incubated at 37° C., 5% CO2 for 3 hours.
(§16) The test articles were dissolved in dimethylsulfoxide (DMSO) to obtain a concentration of 10 mmol/L. The resulting solution was diluted with the medium just before use and added to the cells in the plate to prepare 8 different concentrations of the test article.
(§17) The final concentration of DMSO was 0.1 v/v % After the addition of the test articles, the cells were incubated at 37° C., 5% CO2 for 2 days.
(§18) RORγ transcriptional activity was detected as the intracellular luciferase activity using SteadyLite HTS Reporter Gene Assay System (Perkin Elmer).
(§19) StedyLite Reagent was diluted five-fold into a solution containing 10 mM Tricine, 0.2% w/v BSA, 0.02% v/v Tween-20 to obtain the luciferase substrate solution.
(§20) After the measurement of the cell viability using Resazurin, the culture media in the 384 well-plate were removed. Then the Luc substrate solution was added into each well.
(§21) After the incubation at room temperature for 10 minutes, luminescence of each well was measured by a microplate reader.
(§22) The luciferase activity derived from the luminescence count in the vehicle-control well treated with 0.1% DMSO alone was defined as 100%, and the luciferase activity in the test article was calculated as a percentage (%-of-control) based on the value of the vehicle-control.
(§23) EC50 value of test article was calculated by curve fitting with GraphPad Prism.
(§24) The luminescence counts at the concentration of the test article where the cytotoxicity was observed were excluded from the data analysis.

mouse RORγ = biological target: T2, mouse RORγ (Mus musculus, UniProt P51450); assay: Luciferase reporter gene assay of inhibitory effect against RORγ transcriptional activity (GAL4-mRORγ plasmid in CHO cells); format: cell-based
T2 construct: mouse, NM_011281.2 and from Ile251 to Lys516; expressed in transfected cells; host or cells: CHO cells (transient co-transfection with pG5-Luc reporter)
T2 sequence (P51450 251-516): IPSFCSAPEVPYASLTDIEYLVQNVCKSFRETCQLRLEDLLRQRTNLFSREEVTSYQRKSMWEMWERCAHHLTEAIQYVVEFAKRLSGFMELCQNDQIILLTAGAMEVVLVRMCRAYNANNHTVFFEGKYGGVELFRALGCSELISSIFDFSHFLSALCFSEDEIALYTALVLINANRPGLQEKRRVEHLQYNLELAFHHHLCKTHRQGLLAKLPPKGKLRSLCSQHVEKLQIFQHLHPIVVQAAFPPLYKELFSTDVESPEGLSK
Method: as §1, §2, §3, §4, §5, §6, §7, §8, §9, §10, §11, §12, §13, §14, §15, §16, §17, §18, §19, §20, §21, §22, §23, §24

SMILES | EC50 (human RORγ; read-out: LUC EC50 (μM) hRORg) [µM] | EC50 (mouse RORγ; read-out: LUC EC50 (μM) mRORg) [µM] | EC50 (human RORγ; read-out: LUC EC50 hRORg) [µM] | EC50 (mouse RORγ; read-out: LUC EC50 mRORg) [µM]
Cc1c(Cl)cccc1NC(=O)CCc1nnc(C2CC(C)C2)n1C1CC1 (mixture of isomers) [Example F-168] | > 3 | < 3 |  | 
Cc1ccc(NC(=O)CCc2nnc(C3CC(CC(=O)OC(C)(C)C)C3)n2C2CC2)c(C)c1 (mixture of isomers) [Example F-427] | > 3 | < 3 |  | 
Cc1ccc(NC(=O)CC(CC(=O)N2CC[C@@H](O)C2)c2nnc([C@H]3C[C@@H](CC(C)C)C3)n2C2CC2)c(C)c1 (mixture of isomers) [Example F-502] |  |  | > 3 | > 3
Cc1ccc(NC(=O)CC(CC(=O)N2CC[C@H](O)C2)c2nnc([C@H]3C[C@@H](CC(C)C)C3)n2C2CC2)c(C)c1 (mixture of isomers) [Example F-503] |  |  | > 3 | > 3
Cc1ccc(NC(=O)C[C@H](CCC(=O)O)c2noc3c2C(C)CCC3CCC(C)C)c(Cl)c1 (mixture of isomers) [Example F-691] |  |  | < 3 | < 3
Cc1ccc(NC(=O)CCc2noc(C3(CO)CC(CC(C)(C)C)C3)c2C2CC2)c(Cl)c1 (mixture of isomers) [Example F-730] |  |  | < 3 | < 3
Cc1ccc(NC(=O)CCc2noc(C3(O)CC(CC(C)(C)C)C3)c2C2CC2)c(Cl)c1 (mixture of isomers) [Example F-732] |  |  | < 3 | < 3
CC(=O)OCCC1(c2onc(CCC(=O)Nc3ccc(C)cc3Cl)c2C2CC2)CC(CC(C)(C)C)C1 (mixture of isomers) [Example F-737] |  |  | > 3 | > 3
Cc1ccc(NC(=O)CCc2noc(C3(CCO)CC(CC(C)(C)C)C3)c2C2CC2)c(Cl)c1 (mixture of isomers) [Example F-742] |  |  | > 3 | > 3
Cc1ccc(NC(=O)CCc2noc(C3(CC(=O)O)CC(CC(C)(C)C)C3)c2C2CC2)c(Cl)c1 (mixture of isomers) [Example F-743] |  |  | > 3 | > 3
CCn1c(C2Cc3ccccc3C2)nnc1[C@H]1C[C@@H]1C(=O)Nc1cccc2ccccc12 (racemic) [Example F-26] | > 3 | > 3 |  | 
CCn1c(C2Cc3ccccc3C2)nnc1[C@@H]1C[C@@H]1C(=O)Nc1cccc2ccccc12 (racemic) [Example F-27] | > 3 | < 3 |  | 
CCn1c(CC(C)C(=O)Nc2cccc3ccccc23)nnc1C1Cc2ccccc2C1 (racemic) [Example F-32] | < 3 | < 3 |  | 
CCn1c(C(C)CC(=O)Nc2cccc3ccccc23)nnc1C1Cc2ccccc2C1 (racemic) [Example F-33] | < 3 | < 3 |  | 
CCn1c(C(O)CC(=O)Nc2cccc3ccccc23)nnc1C1Cc2ccccc2C1 (racemic) [Example F-34] | > 3 | > 3 |  | 
CCn1c(CCC2CCCCC2)nnc1[C@H]1CCCC[C@@H]1C(=O)Nc1cccc2ccccc12 (racemic) [Example F-35] | < 3 | < 3 |  | 
CCn1c(CCC2CCCCC2)nnc1[C@H]1C[C@@H]1C(=O)Nc1cccc2ccccc12 (racemic) [Example F-36] | > 3 | > 3 |  | 
CCn1c(CCC2CCCCC2)nnc1[C@H]1C[C@@H]1C(=O)Nc1cccc2ccccc12 (racemic) [Example F-37] |  | < 3 |  | 
